Experimental data reported in article PMC6424957 (Scientific Reports, 2019).

Key:
[1] = target: T1, porcine liver carboxylesterase (CaE) (Sus scrofa, UniProt Q29550); test: CaE inhibition (4-nitrophenyl acetate hydrolysis); assay type: biochemical; conditions: for % inhibition of CaE at 20 µM / inhibition at 20 µM: mean ± SEM, n ≥ 3, n.a. = not active at 20 µM; for IC50: read-out: IC50 CaE
T1 sequence (Q29550 19-566): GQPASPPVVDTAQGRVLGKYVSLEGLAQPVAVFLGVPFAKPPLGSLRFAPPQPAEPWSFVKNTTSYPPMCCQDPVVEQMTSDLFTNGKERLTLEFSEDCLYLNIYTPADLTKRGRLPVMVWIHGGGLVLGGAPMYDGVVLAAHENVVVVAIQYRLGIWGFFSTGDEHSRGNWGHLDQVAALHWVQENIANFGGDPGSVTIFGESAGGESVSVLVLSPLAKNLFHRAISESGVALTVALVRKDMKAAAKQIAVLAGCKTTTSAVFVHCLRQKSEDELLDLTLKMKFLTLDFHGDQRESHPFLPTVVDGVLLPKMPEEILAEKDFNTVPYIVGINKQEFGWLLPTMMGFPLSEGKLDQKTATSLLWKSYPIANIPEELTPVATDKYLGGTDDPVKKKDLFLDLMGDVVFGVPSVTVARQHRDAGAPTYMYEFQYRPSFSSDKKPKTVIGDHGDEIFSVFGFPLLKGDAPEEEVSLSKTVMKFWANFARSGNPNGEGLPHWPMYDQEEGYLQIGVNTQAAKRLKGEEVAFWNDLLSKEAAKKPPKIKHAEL
Description: Acetylcholinesterase (AChE, EC 3.1.1.7, from human erythrocyte and E. electricus (EeAChE) (type VI-S), butyrylcholinesterase (BChE, EC 3.1.1.8, from equine serum), carboxylesterase (CaE, EC 3.1.1.1, from porcine liver), acetylthiocholine iodide (ATCh), butylthiocholine iodide (BTCh), 5,5′-dithiobis-(2-nitrobenzoic acid) (DTNB), 4-nitrophenyl acetate (4-NPA), were purchased from Sigma-Aldrich (Germany).
AChE and BChE activities were measured by the Ellman method as described earlier. The assay solution consisted of 0.1 M K/Na phosphate buffer pH 7.5, 25 °C with the addition of 0.33 mM DTNB, 0.02 unit/mL of AChE or BChE, and 1 mM of substrate (ATCh or BTCh, respectively). The assays were carried out with a reagent blank containing all components except AChE or BChE to account for non-enzymatic hydrolysis of substrate. In addition, an enzyme blank was included that contained all components except substrate to account for non-substrate sulfhydryl groups. […] The assay solution consisted of 0.1 M K/Na phosphate buffer pH 8.0, 25 °C with the addition of 1 mM 4-nitrophenyl acetate and 0.02 unit/mL of CaE. Assays were carried out with a blank containing all components except CaE.
The test compounds were dissolved in DMSO; the incubation mixture contained 2% (v/v) of the solvent. […] The test compounds were added to the assay solution and preincubated at 25°C with the enzymes for 5 min followed by the addition of substrate. A parallel control was made for the assay solution with no inhibitor. […] Each experiment was performed three times. The results were expressed as the mean ± SEM. The reaction rates in the presence and absence of inhibitor were compared, and the percent of residual enzyme activity due to the presence of test compounds was calculated.

[2] = system: isolated rat liver mitochondria; test: Mitochondrial membrane potential (safranine O); assay type: biochemical; conditions: 30 µM, 10-min incubation, mean ± SD, n ≥ 5; for ΔΨm, % depolarization, CI (g/m): energized with Complex-I substrates (glutamate, malate); for ΔΨm, % depolarization, CII (s/r): energized with succinate in the presence of rotenone
Source text: Mitochondria and the mitochondrial permeability transition (MPT) are key players in the cascades of events leading to cell death. Consequently, inhibition of the MPT is a promising target in neuroprotection. On the other hand, depolarization of mitochondria is widely used a predictor of toxicity[72] but depolarization connected with uncoupling of the respiratory chain or stimulation of electron flux can also be cytoprotective. Due to its redox-cycling capability, MB can restore the electron flux in the respiratory chain in the presence of inhibitors of complex-I[74]. […] Consequently, we measured the effect of our conjugates of MB and γ-carbolines on mitochondrial membrane potential under two conditions. (C1) Mitochondria were energized with NADH-dependent substrates of Complex-I (glutamate and malate). (CII) Mitochondria were energized with an FADH2-dependent substrate of Complex II (succinate) in the presence of rotenone, a Complex-I inhibitor. Conjugates (30 μM) were incubated with mitochondria and the effect on mitochondrial membrane potential was measured. For comparison, mitochondria were incubated with MB, MBH2, and Dimebon (30 μM each).
Safranine O (10 µM) was used as a membrane potential probe. Fluorescence intensity at 580 nm (excitation at 520 nm) was measured with Victor3 multi-well fluorescence plate reader (Perkin Elmer, Germany). Mitochondrial protein concentration was 0.2 mg/ml. The medium for measurements contained 75 mM sucrose, 225 mM mannitol, 10 mM K-HEPES, 0.02 mM EGTA, and 1 mM KH2PO4 (pH 7.4, 25 °C). After a 5-min incubation, 5 mM glutamate/malate or 5 mM succinate and 0.5 μM rotenone were added to produce the mitochondrial potential. Then the compounds (30 μM) or the same volume of vehicle (DMSO) were injected into the mitochondrial suspension. After 15–20 min, CaCl2 (12.5 μM) was added to each probe to induce the depolarization of mitochondria and after 5 min 0.5 µM carbonyl cyanide m-chlorophenyl hydrazone (CCCP) was added for maximum depolarization of mitochondria. The level of depolarization (ΔΨm) was calculated from the fluorescence value after a 10-min incubation with 30 µM of compounds (or vehicle) normalized between fluorescence measurements after substrate and CCCP additions.

[3] = target: T2, AChE from human erythrocytes (Homo sapiens, UniProt P22303); assay type: biochemical; conditions: for αKi (non-competitive component), AChE / Ki: Lineweaver-Burk analysis; for Ki: read-out: Ki (competitive component), AChE
T2 construct: Acetylcholinesterase (AChE, EC 3.1.1.7, from human erythrocyte); purchased Sigma-Aldrich (Germany); host or cells: human erythrocytes
Description: (§1) To elucidate the inhibition mechanisms for the active compounds, the AChE and BChE residual activity was determined in the presence of 3 increasing concentrations of the test compounds and 6 decreasing concentrations of the substrates. The test compounds were preincubated with the enzymes at 25 °C for 5 min, followed by the addition of the substrates. Parallel controls were made for an assay of the rate of hydrolysis of the same concentrations of substrates in the solutions with no inhibitor. […] Each experiment was performed three times.

BChE from equine serum = target: T3, BChE from equine serum (Equus caballus, UniProt P81908); assay type: biochemical; conditions: for αKi (non-competitive component), BChE / Ki: Lineweaver-Burk analysis; for Ki: read-out: Ki (competitive component), BChE
T3 construct: butyrylcholinesterase (BChE, EC 3.1.1.8, from equine serum); purchased Sigma-Aldrich (Germany); host or cells: equine serum
Description: as §1

[4] = system: isolated rat liver mitochondria; test: Restoration of mitochondrial membrane potential after rotenone-induced depolarization; assay type: biochemical; conditions: 3 μM compound
Source text: Therefore, we examined the ability of MB, MBH2, and compound 3 to restore membrane potential after depolarization with rotenone. […] It is important to note that successive additions of calcium and the uncoupler carbonyl cyanide m-chlorophenyl hydrazone (CCCP) each caused mitochondrial depolarization (Fig. 6). […]

[5] = cited from earlier work
[6] = Lineweaver-Burk plots, changes in Vmax and Km

T2 sequence (P22303 32-617 isoform P22303-2 limits assumed): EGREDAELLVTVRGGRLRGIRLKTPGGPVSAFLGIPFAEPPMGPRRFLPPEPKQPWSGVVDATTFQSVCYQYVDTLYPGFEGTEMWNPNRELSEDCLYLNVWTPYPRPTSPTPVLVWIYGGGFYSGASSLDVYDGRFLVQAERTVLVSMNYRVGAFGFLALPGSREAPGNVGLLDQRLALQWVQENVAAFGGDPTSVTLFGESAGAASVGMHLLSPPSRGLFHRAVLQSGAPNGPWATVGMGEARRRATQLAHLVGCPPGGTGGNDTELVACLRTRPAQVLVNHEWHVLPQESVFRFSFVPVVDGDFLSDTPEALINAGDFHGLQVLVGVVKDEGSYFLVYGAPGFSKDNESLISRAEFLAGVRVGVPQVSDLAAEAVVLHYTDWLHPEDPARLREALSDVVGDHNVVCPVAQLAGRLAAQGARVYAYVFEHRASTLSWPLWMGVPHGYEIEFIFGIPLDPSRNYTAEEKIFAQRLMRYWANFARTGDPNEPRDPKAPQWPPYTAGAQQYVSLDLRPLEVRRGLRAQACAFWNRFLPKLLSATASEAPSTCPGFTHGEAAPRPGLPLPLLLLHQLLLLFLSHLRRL
T3 sequence (P81908 whole entry): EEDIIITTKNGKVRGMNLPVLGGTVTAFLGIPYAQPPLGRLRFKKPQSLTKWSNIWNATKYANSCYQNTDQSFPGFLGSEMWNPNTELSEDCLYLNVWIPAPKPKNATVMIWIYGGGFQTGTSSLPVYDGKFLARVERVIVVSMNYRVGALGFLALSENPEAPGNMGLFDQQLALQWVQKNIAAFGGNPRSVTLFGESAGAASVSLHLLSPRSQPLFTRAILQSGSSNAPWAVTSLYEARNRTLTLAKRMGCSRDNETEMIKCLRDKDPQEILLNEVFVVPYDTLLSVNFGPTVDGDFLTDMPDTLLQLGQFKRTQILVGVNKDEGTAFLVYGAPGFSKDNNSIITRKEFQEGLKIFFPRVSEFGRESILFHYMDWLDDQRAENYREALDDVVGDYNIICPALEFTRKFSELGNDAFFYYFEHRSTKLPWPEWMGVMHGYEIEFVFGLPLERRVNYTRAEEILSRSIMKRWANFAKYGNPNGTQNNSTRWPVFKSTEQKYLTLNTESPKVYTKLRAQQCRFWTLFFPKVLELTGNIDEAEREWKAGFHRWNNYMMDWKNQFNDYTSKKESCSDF

SMILES | % inhibition of CaE at 20 µM [1] [%] | IC50 [1] [µM] | ΔΨm, % depolarization, CI (g/m) [2] [%] | ΔΨm, % depolarization, CII (s/r) [2] [%] | inhibition at 20 µM [1] [%] | αKi (non-competitive component), AChE [3] [µM] | Ki [3] [µM] | type of AChE inhibition [3, 6] | αKi (non-competitive component), BChE (BChE from equine serum) [µM] | Ki (BChE from equine serum) [µM] | type of BChE inhibition (BChE from equine serum; [6]) | recovery of ΔΨm after rotenone-induced depolarization [4] | redox potential [5] [mV]
CN1CCc2c(c3ccccc3n2CCC(=O)N2c3ccc(N(C)C)cc3Sc3cc(N(C)C)ccc32)C1.Cl.Cl.Cl [Compound 1] | 21.5 ± 2.3 | > 20 | 20 ± 1 | 64 ± 2 |  |  |  |  |  |  |  |  | 
CCN1CCc2c(c3ccccc3n2CCC(=O)N2c3ccc(N(C)C)cc3Sc3cc(N(C)C)ccc32)C1.Cl.Cl.Cl [Compound 2] | 18.1 ± 1.7 | > 20 | 7 ± 1 | 48 ± 1 |  |  |  |  |  |  |  |  | 
Cc1ccc2c(c1)c1c(n2CCC(=O)N2c3ccc(N(C)C)cc3Sc3cc(N(C)C)ccc32)CCN(C)C1 [Compound 3] |  | > 20 | 29 ± 11 | 67 ± 2 | 26 | 3.35 ± 0.31 | 0.88 ± 0.07 | mixed-type inhibition | 2.09 ± 0.19 | 0.37 ± 0.03 | mixed-type inhibition | recovered | 
CCN1CCc2c(c3cc(C)ccc3n2CCC(=O)N2c3ccc(N(C)C)cc3Sc3cc(N(C)C)ccc32)C1.Cl.Cl.Cl [Compound 4] | 15.7 ± 1.8 | > 20 | 9 ± 1 | 43 ± 3 |  |  |  |  |  |  |  |  | 
CCCN1CCc2c(c3cc(C)ccc3n2CCC(=O)N2c3ccc(N(C)C)cc3Sc3cc(N(C)C)ccc32)C1.Cl.Cl.Cl [Compound 5] | 9.8 ± 1.4 | > 20 | 17 ± 2 | 69 ± 2 |  |  |  |  |  |  |  |  | 
Cc1ccc2c(c1)c1c(n2CCC(=O)N2c3ccc(N(C)C)cc3Sc3cc(N(C)C)ccc32)CCN(C(C)C)C1.Cl.Cl.Cl [Compound 6] | 19.5 ± 1.8 | > 20 | 8 ± 2 | 44 ± 5 |  | 13.4 ± 1.2 | 3.52 ± 0.29 |  | 2.64 ± 0.24 | 0.53 ± 0.04 |  |  | 
CN1CCc2c(c3cc(F)ccc3n2CCC(=O)N2c3ccc(N(C)C)cc3Sc3cc(N(C)C)ccc32)C1 [Compound 7] |  | > 20 | 13 ± 3 | 67 ± 1 | 13.8 |  |  |  |  |  |  |  | 
CN(C)c1ccc2nc3ccc(=[N+](C)C)cc-3sc2c1 [MB, methylene blue, reference compound] |  | > 20 | 14 ± 7 | 40 ± 9 | 12.3 |  |  |  |  |  |  | recovered | 11
CN(C)c1ccc2c(c1)Sc1cc(N(C)C)ccc1N2 [MBH2, leucomethylene blue, reference compound] |  | > 20 |  | 18 ± 1 | 17.2 |  |  |  |  |  |  | recovered | 
